Earlier results in US20260204362A1, “METHOD FOR DETERMINING A TARGET […] COMPOUND COMPRISING A TARGET BIODEGRADABILITY” (BASF SE, priority 2022, published 2026).

Details: known values for test molecules from the NITE database; OECD 301 (A-F) test setups, measurement uncertainty ca. 10%

In order of falling “Biodegradability (data) in %” value:
1. CCC(CC)C(=O)OCCOCCOCCOC(=O)C(CC)CC [CCC(CC)C(═O)OCCOCCOCCOC(═O)C(CC)CC]  81%
2. CNCCS(=O)(=O)O [CNCCS(═O)(═O)O]  62%
3. OCC=CCO [OCC═CCO]  57%
4. BrCCCCBr [BrCCCCBr]  17%
5. CCCCN(CCCC)C(=S)[S][Ni][S]C(=S)N(CCCC)CCCC [CCCCN(CCCC)C(═S)S[Ni]SC(═S)N(CCCC)CCCC]  3%
